# Where two headings read alike, the source gives them in different places.
# B1: Repatha: anti-PCSK9 monoclonal antibody (antibody, chains of the INN, looked up, V domains shown)
# VH: EVQLVQSGAEVKKPGASVKVSCKASGYTLTSYGISWVRQAPGQGLEWMGWVSFYNGNTNYAQKLQGRGTMTTDPSTSTAYMELRSLRSDDTAVYYCARGYGMDVWGQGTTVTVSS
# VL: ESALTQPASVSGSPGQSITISCTGTSSDVGGYNSVSWYQQHPGKAPKLMIYEVSNRPSGVSNRFSGSKSGNTASLTISGLQAEDEADYYCNSYTSTSMVFGGGTKLTVL
# Legend:
# [1] = stability of amorphous salt forms, impurity levels (FIG. 5); type: physicochemical; conditions: chloride salt made with HCl acidification step, risk of excess HCl
# free PCSK9 = target: T1, free PCSK9 (Homo sapiens, UniProt Q8NBP7); assay: single dose study: reduction of free plasma PCSK9 from baseline (target engagement); type: in vivo
# T1 construct: reduction in plasma levels of free PCSK9 protein; from tissue; host or cells: plasma of healthy human volunteers (in vivo, endogenous)
# T1 sequence (Q8NBP7 153-692): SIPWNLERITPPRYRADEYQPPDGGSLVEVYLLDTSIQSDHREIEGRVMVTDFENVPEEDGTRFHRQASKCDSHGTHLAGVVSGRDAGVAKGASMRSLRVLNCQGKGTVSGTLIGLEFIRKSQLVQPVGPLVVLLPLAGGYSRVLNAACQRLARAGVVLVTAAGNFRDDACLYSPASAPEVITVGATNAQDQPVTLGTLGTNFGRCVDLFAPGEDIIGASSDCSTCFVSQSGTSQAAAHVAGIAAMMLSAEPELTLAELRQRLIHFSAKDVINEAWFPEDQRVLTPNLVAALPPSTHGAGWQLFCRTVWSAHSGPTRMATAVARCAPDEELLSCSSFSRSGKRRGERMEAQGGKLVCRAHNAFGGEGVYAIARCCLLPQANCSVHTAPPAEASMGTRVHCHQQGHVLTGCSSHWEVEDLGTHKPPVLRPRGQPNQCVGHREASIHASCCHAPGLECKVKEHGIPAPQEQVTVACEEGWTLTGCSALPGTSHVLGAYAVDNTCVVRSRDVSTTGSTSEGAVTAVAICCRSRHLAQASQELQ
# T1 sequence (Q8NBP7 31-152 partner limits assumed): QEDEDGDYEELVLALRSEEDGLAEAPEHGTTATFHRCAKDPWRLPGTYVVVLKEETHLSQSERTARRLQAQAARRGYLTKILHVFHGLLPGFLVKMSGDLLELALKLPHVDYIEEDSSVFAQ
# [2] = Source text: (§1) Evaluation of pharmacokinetics, pharmacodynamics (reduction of free PCSK9 from baseline) and safety and tolerability of single doses of the compound of formula (I) were studied in normal healthy male volunteers aged 18-50. […] Additionally, this trial examined the effect of permeation enhancer dose on PK, the effect of food on PK, and the effect of various capsule formulations on PK. The pharmacodynamic endpoint measured in this study was target engagement (% change in free PCSK9).
# (§2) The capsules were over-encapsulated with enteric capsules (HPMC Vcaps® Enteric, Capsugel®, Lonza).
# [3] = single dose study: safety and tolerability
# Source text: as §1, §2
# human PCSK9 = human PCSK9 (Homo sapiens, UniProt Q8NBP7)
# human PCSK9, sequence (Q8NBP7 153-692): as the sequence (Q8NBP7 153-692) above
# [4] = rats; co-administration with permeation enhancer (Labrasol, sodium caprate)
# [5] = non-human primates; co-administration with permeation enhancer (Labrasol, sodium caprate)
# [6] = rats; subcutaneous dosing plus oral arms; up to/including highest doses administered
# [7] = nonhuman primates; subcutaneous dosing plus oral arms; up to/including highest doses administered
# [8] = once daily for 14 days
# Method: (§3) Standard takeaway meals were provided to participants to consume no less than 30 minutes after receiving their once daily dose. In addition to standard safety monitoring, including vital signs, ECG and laboratory safety tests, plasma lipids (total cholesterol, LDL-C, HDL-C and TG) were measured. LDL-C was monitored as part of the safety labs.
# LDL-C [9] = conditions: hard gelatin capsule, 5 mg plus 180 mg sodium caprate, participants taking statins
# LDL-C [10] = assay: multiple dose study: LDL-C reduction in participants on statin background therapy
# Method: as §3
# Blood LDL-cholesterol levels were measured using standard clinical laboratory testing procedures predose and on day 3, 7, 14, 15 and 21 after dosing.
# LDL-C [11] = conditions: ODYSSEY, N Engl J Med 2018; cited from earlier work
# LDL-C [12] = conditions: phase 3 lipid trials, N Engl J Med 2020; cited from earlier work
# LDL-C [13] = conditions: FOURIER, N Engl J Med 2017; cited from earlier work
# [14] = Panel A 200 mg no PE (permeation enhancer)
# [15] = Panel B 120 mg with 720 mg Labrasol
# [16] = Panel C 40 mg with 720 mg Na Caprate
# [17] = Panel C 100 mg with 1800 mg Na caprate
# [18] = single oral doses 10 to 300 mg, healthy male volunteers
molecule,measurement,setting,value
COc1ccc(C[C@@H]2NC(=O)[C@H]([C@@H](C)O)NC(=O)[C@@H]3[C@@H]4CCN3C(=O)[C@@H]3Cc5cn(c6ccc(F)cc56)CCCCCCN(Cc5ccc(cc5)CCNC(=O)[C@]5(C)CCCN5C2=O)C(=O)CCC(=O)N[C@@H](C)C(=O)N[C@H](CNC(=O)CCCCC[N+](C)(C)C)C(=O)N[C@@H](Cc2cccc(c2)CNC(=O)CO4)C(=O)N3)cc1 [Compound 3],stability / impurity levels of amorphous salt,[1],demonstrate stability
COc1ccc(C[C@@H]2NC(=O)[C@H]([C@@H](C)O)NC(=O)[C@@H]3[C@@H]4CCN3C(=O)[C@@H]3Cc5cn(c6ccc(F)cc56)CCCCCCN(Cc5ccc(cc5)CCNC(=O)[C@]5(C)CCCN5C2=O)C(=O)CCC(=O)N[C@@H](C)C(=O)N[C@H](CNC(=O)CCCCC[N+](C)(C)C)C(=O)N[C@@H](Cc2cccc(c2)CNC(=O)CO4)C(=O)N3)cc1.[Cl-] [Compound 1],stability / impurity levels of amorphous salt,[1],higher impurity levels
same,GM Maximum Percent Target Reduction From Baseline of Free PCSK9,free PCSK9; Panel A 10 mg single dose,93.32%
same,Posterior Probability of True GM Free PCSK9 Maximum Percent Reduction ≥80%,free PCSK9; Panel A 10 mg single dose,>0.99
same,GM Maximum Percent Target Reduction From Baseline of Free PCSK9,free PCSK9; [14],96.83%
same,Posterior Probability of True GM Free PCSK9 Maximum Percent Reduction ≥80%,free PCSK9; [14],>0.99
same,GM Maximum Percent Target Reduction From Baseline of Free PCSK9,free PCSK9; Panel A 200 mg single dose,99.46%
same,Posterior Probability of True GM Free PCSK9 Maximum Percent Reduction ≥80%,free PCSK9; Panel A 200 mg single dose,>0.99
same,GM Maximum Percent Target Reduction From Baseline of Free PCSK9,free PCSK9; Panel B 35 mg single dose,98.72%
same,Posterior Probability of True GM Free PCSK9 Maximum Percent Reduction ≥80%,free PCSK9; Panel B 35 mg single dose,>0.99
same,GM Maximum Percent Target Reduction From Baseline of Free PCSK9,free PCSK9; [15],99.43%
same,Posterior Probability of True GM Free PCSK9 Maximum Percent Reduction ≥80%,free PCSK9; [15],>0.99
same,GM Maximum Percent Target Reduction From Baseline of Free PCSK9,free PCSK9; Panel B 300 mg single dose,99.68%
same,Posterior Probability of True GM Free PCSK9 Maximum Percent Reduction ≥80%,free PCSK9; Panel B 300 mg single dose,>0.99
same,GM Maximum Percent Target Reduction From Baseline of Free PCSK9,free PCSK9; [16],97.94%
same,Posterior Probability of True GM Free PCSK9 Maximum Percent Reduction ≥80%,free PCSK9; [16],>0.99
same,GM Maximum Percent Target Reduction From Baseline of Free PCSK9,free PCSK9; Panel C 100 mg single dose,99.36%
same,Posterior Probability of True GM Free PCSK9 Maximum Percent Reduction ≥80%,free PCSK9; Panel C 100 mg single dose,>0.99
same,GM Maximum Percent Target Reduction From Baseline of Free PCSK9,free PCSK9; [17],99.18%
same,Posterior Probability of True GM Free PCSK9 Maximum Percent Reduction ≥80%,free PCSK9; [17],>0.99
same,effect of food on plasma exposure,[2]; food consumed 30 minutes after the dose,negligible effect
same,effect of food on plasma exposure,"[2]; food consumed 30 minutes before dosing, compared to fasted",lower plasma exposure
same,PK in the presence of Labrasol versus sodium caprate,[2]; single dose,similar
same,effect of permeation enhancers on absorption (Cmax and AUC0-24),"[2]; single dose, with vs without permeation enhancer",improve absorption
same,plasma exposure versus dose,[2]; single oral doses 10 to 300 mg,dose dependent increase
same,adverse events related to Compound 1 reported by the Investigator,[3]; [18],"abdominal discomfort, diarrhea, dyspepsia, headache, and maculopapular rash"
same,deaths or severe adverse events (SAEs),[3]; [18],no death or severe adverse events
same,tolerability,"[3]; single oral doses up to 300 mg, healthy male volunteers",well tolerated
same,severity of treatment-related AEs,"[3]; single oral doses, exception of one participant with severe back pain, not dose-related",mild/moderate
same,binding affinity against human PCSK9,human PCSK9,picomolar
same,GI absorption,[4],improved
same,GI absorption,[5],improved
same,adverse effects in GLP toxicity study,[6],no adverse effects were observed
same,adverse effects in GLP toxicity study,[7],no adverse effects were observed
same,PK of 10 mg plus 180 mg sodium caprate versus 10 mg plus 360 mg sodium caprate,[8],similar
same,% LDL-C reduction from baseline,LDL-C [9],< 50%
same,mean reduction of LDL-C,"LDL-C [10]; 10 mg plus 180 mg sodium caprate, once daily for 14 days, statin background",approximately 60%
same,mean reduction of LDL-C,"LDL-C [10]; 10 mg plus 360 mg sodium caprate, once daily for 14 days, statin background",approximately 64%
same,mean reduction of plasma LDL-C,"LDL-C [10]; 20 mg plus 360 mg sodium caprate, once daily for 14 days, statin background",approximately 62%
COc1ccc(C[C@@H]2NC(=O)[C@H]([C@@H](C)O)NC(=O)[C@@H]3[C@@H]4CCN3C(=O)[C@@H]3Cc5cn(c6ccc(F)cc56)CCCCCCN(Cc5ccc(cc5)CCNC(=O)[C@]5(C)CCCN5C2=O)C(=O)CCC(=O)N[C@@H](C)C(=O)N[C@H](CNC(=O)CCCCC[N+](C)(C)C)C(=O)N[C@@H](Cc2cccc(c2)CNC(=O)CO4)C(=O)N3)cc1 [compound of formula (I)],mean maximum reduction of free plasma PCSK9 levels from baseline,"free PCSK9; single doses, all dose levels studied",more than 90%
same,tolerability,[3]; single and multiple oral doses in healthy volunteers,generally well tolerated
same,lowering of LDL-cholesterol in the blood from baseline,"LDL-C [10]; 14 days of once daily oral dosing, background of moderate-to-high intensity statin therapy",approximately 65%
Praluent: anti-PCSK9 monoclonal antibody,reduction in LDL-C,LDL-C [11],59%
Inclisiran,reduction in LDL-C,LDL-C [12],49-52%
B1,reduction in LDL-C,LDL-C [13],59%

# — patent publication US20240238367A1, “COMPOUNDS FOR TREATING CONDITIONS RELATED TO PCSK9 ACTIVITY” (MERCK SHARP & DOHME LLC, priority 2021, published 2024)
